Measured values as given in patent US10736898B2, “Positive allosteric modulators of the muscarinic acetylcholine receptor M4” (Vanderbilt University, priority 2017, dated 2020).

Columns and labels:
[1] = system: 68 primary molecular targets; experiment: Eurofins LeadProfilingScreen (binding); settings: at 10 μM (binding); 68 targets
Text: The screen includes 68 primary molecular targets, including several CNS targets recommended by the EMEA to evaluate drug dependence potential.

Human Fu (plasma) = format: in vitro ADME
Protocol: (§1) Compound 1 was evaluated in several well-known in vitro assays to investigate both metabolism and pharmacokinetics. Bidirectional permeability/efflux was determined in MDCK-MDR1 cells, which originate from transfection of Madin Darby canine kidney (MDCK) cells with the MDR1 gene. These assays were performed according to known methods as generally described in the following references: Conde-Ceide et al. ACS Med. Chem. Lett. 2015, 6, 716-720; Morris et al. J. Med. Chem. 2014, 57, 10192-10197; and Bubser et al. ACS Chem. Neurosci. 2014, 5, 920-942.

Dog CLint = format: in vitro ADME
Protocol: as §1

P450 1A2 = target: T1, P450 1A2 (Homo sapiens, UniProt P05177); experiment: P450 1A2 inhibition; format: in vitro ADME
T1 sequence (P05177 1-516): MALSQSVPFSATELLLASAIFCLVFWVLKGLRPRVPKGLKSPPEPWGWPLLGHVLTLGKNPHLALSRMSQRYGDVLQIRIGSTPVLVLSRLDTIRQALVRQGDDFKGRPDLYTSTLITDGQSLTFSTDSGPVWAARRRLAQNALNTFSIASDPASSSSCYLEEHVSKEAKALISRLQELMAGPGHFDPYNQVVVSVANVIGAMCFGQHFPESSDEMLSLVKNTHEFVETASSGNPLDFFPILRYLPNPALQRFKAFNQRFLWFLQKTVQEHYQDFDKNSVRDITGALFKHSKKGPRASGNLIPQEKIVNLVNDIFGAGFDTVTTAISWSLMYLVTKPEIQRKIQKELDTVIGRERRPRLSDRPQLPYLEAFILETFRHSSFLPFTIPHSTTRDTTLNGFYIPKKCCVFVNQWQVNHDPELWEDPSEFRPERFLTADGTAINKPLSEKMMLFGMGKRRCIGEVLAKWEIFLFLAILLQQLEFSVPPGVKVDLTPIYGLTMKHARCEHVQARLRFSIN
Protocol: as §1

male Sprague-Dawley rats = experiment: Reversal of amphetamine-induced hyperlocomotion in rats; format: in vivo, rat
Protocol: Drugs: d-Amphetamine hemisulfate was obtained from Sigma (St. Louis, Mo.). Salt-correction was used to determine the correct amount of the d-amphetamine hemisulfate form in milligrams to add to sterile water in order to yield a 0.75 mg/mL solution, which would be dosed at 1 mL/kg body weight of each animal. […] The solutions were formulated so that animals were injected with a volume equal to 10 mL/kg body weight for all compounds. The appropriate amount according to the dosage was mixed in 10% Tween 80 (Sigma) 90% sterile water. The mixtures were then vortexed and stored in a 39° C. sonication bath for 1 hour, until in a microsuspension (except for the highest dose, which was a suspension).
Animals: Male Sprague-Dawley rats weighing 239-300 grams and averaging 265 g (Harlan, Inc., Indianapolis, Ind.) were used. They were housed in the animal care facility certified by the American Association for the Accreditation of Laboratory Animal Care (AALAC) under a 12-hour light/dark cycle (lights on: 6 a.m.; lights off: 6 p.m.) and had free access to food and water. The animals used in this experiment were food-deprived the evening before experimentation for oral dosing of compound/vehicle. The experimental protocols performed during the light cycle were approved by the Institutional Animals Care and Use Committee of Vanderbilt University and conformed to the guidelines established by the National Research Council Guide for the Care and Use of Laboratory Animals.
Amphetamine-induced Hyperlocomotion: Male Harlan Sprague Dawley rats were habituated in Smart Open Field locomotor activity test chambers (Hamilton-Kinder, San Diego, Calif.) with 16×16 photo beams to automatically record locomotor activity. […] They were monitored for an additional 30 minutes and then injected subcutaneously with vehicle or […] amphetamine. Animals were then monitored for an additional 60 minutes, for a total of 120 minutes. Data were expressed as changes in ambulation defined as total number of beam breaks per 5 minute interval. […]
Data Analysis: Behavioral data were analyzed using a two-way ANOVA with main effects of treatment and time. […] In addition, the total number of beam breaks from the amphetamine administration (65 min) to the end of the study (120 min) was calculated and graphed. Percent Reversal was calculated as follows using Microsoft Excel: In each animal, total ambulation from t=65 to t=120 was summed. The mean of each sum was calculated in the VAMP group. Then, for each animal, Percent Reversal was calculated with the following formula: Percent Reversal=100−{[(total ambulation in each animal from t=65 to t=120)/(mean of each sum from t=65 to t=120 in VAMP group)]*100}. The mean Percent Reversal, as well as the standard error, was calculated for each dose group using GraphPad Prism V5.04.

Cc1nc(C)c2c(n1)sc1c(NCc3ccc(C(C)(C)O)cc3)ncnc12 [Compound 1, 2-(4-(((7,9-Dimethylthieno[2,3-d:4,5-d′]dipyrimidin-4-yl)amino)methyl)phenyl)propan-2-ol]
inhibition of each target in the LeadProfilingScreen [1]: < 50%
fraction unbound (Human Fu (plasma)): 0.014
CLint scaled (Dog CLint): 17 mL/min/kg
IC50 (P450 1A2): 23 µM
percent reversal of amphetamine-induced hyperlocomotion (male Sprague-Dawley rats; 1 mg/kg p.o.): 30.5%
percent reversal of amphetamine-induced hyperlocomotion (male Sprague-Dawley rats; 3 mg/kg p.o.): 41.1%
percent reversal of amphetamine-induced hyperlocomotion (male Sprague-Dawley rats; 10 mg/kg p.o.): 54.2%
